For eight compounds, IC50 results are on record in US9957264B2 (Merck Sharp & Dohme Corp., priority 2013, dated 2018).

Assay [1] has as its target JAK1 (recombinant purified GST-tagged catalytic domain) (Homo sapiens (Human), UniProt P23458). Put plainly: Jak Biochemical HTRF Assay (JAK1). Particulars: [ATP] 31.8 μM. In short, it runs like this: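 Under a 120 min room-temperature, ATP-initiated reaction, peptide phosphorylation was detected by Eu-pY20/streptavidin-Dylight 650 HTRF after EDTA stop. IC50 values derive from percent inhibition curves.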
A general note: Time-resolved FRET reads energy transfer from a long-lived donor to a nearby acceptor.

Assay [2] deals with JAK2 (recombinant purified GST-tagged catalytic domain) (Homo sapiens (Human), UniProt O60674). Put plainly: Jak Biochemical HTRF Assay (JAK2). Particulars: [ATP] 8.5 μM.
Chain of JAK2 (recombinant purified GST-tagged catalytic domain) (O60674 849-1124): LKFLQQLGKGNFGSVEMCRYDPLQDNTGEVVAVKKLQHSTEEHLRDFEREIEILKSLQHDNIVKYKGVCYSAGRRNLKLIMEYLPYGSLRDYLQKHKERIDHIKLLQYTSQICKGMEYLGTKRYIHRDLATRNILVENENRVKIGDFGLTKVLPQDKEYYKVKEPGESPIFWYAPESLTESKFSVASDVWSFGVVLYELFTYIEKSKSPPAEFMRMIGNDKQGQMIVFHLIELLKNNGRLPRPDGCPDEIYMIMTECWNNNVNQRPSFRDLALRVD

Chain of JAK1 (recombinant purified GST-tagged catalytic domain) (P23458 875-1153): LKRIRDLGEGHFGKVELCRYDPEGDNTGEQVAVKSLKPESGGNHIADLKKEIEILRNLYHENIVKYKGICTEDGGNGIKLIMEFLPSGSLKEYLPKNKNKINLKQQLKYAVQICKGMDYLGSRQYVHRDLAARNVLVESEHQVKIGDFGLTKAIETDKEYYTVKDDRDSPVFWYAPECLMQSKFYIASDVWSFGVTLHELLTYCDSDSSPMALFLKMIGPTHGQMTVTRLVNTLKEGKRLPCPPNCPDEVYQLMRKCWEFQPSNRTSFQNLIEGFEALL

By IC50 is commonly meant the midpoint of a concentration-inhibition curve. `CN(C)S(=O)(=O)c1ccc(Nc2nn(C3(CC#N)CCN(C(=O)C4Cc5ccccc5C4)CC3)c3cc[nH]c(=O)c23)cc1` [Example 9-18, 4-({1-[4-(cyanomethyl)-1-(2,3-dihydro-1H-inden-2-ylcarbonyl)piperidin-4-yl]-4-oxo-4,5-dihydro-1H-pyrazolo[4,3-c]pyridin-3-yl}amino)-N,N-dimethylbenzenesulfonamide]: the IC50 worked out at 0.14 nM in assay [1] and 0.39 nM in assay [2].

In the case of `CC(F)(F)C(=O)N1CCC(CC#N)(n2nc(Nc3ccc4c(c3)CN(C(C)(C)C)S4(=O)=O)c3c(=O)[nH]ccc32)CC1` [Example 5-26, 2-(4-(3-((2-(tert-butyl)-1,1-dioxido-2,3-dihydrobenzo [d]isothiazol-5-yl)amino)-4-oxo-4,5-dihydro-1H-pyrazolo[4,3-c]pyridin-1-yl)-1-(2,2-difluoro-propanoyl)piperidin-4-yl) acetonitrile], the IC50 in assay [1] was 0.09 nM; in assay [2], 0.1 nM.

Consider `CC(C)(C)OC(=O)N1CCC(CC#N)(n2nc(Nc3ccc4c(c3)CN(CC3CC3)S4(=O)=O)c3c(=O)[nH]ccc32)CC1` [Example 5-68, tert-butyl 4-(cyanomethyl)-4-(3-{[2-(cyclopropylmethyl)-1,1-dioxo-2,3-dihydro-1,2-benzothiazol-5-yl]amino}-4-oxo-1H,4H,5H-pyrazolo[4,3-c]pyridin-1-yl)piperidine-1-carboxylate], for which the IC50 worked out at 0.25 nM in assay [1] and 0.33 nM in assay [2].

As for `CN(C)S(=O)(=O)c1ccc(Nc2nn(C3(CC#N)CCN(C(=O)C4CC4)CC3)c3cc[nH]c(=O)c23)cc1` [Example 9-6, 4-({1-[4-(cyanomethyl)-1-(cyclopropylcarbonyl)piperidin-4-yl]-4-oxo-4,5-dihydro-1H-pyrazolo[4,3-c]pyridin-3-yl}amino)-N,N-dimethylbenzenesulfonamide], the IC50 in assay [1] came out at 0.08 nM; in assay [2], 0.29 nM.

Consider `Cc1cc(Nc2nn([C@]3(CC#N)CC[C@@H](C(=O)OC(C)(C)C)OC3)c3cc[nH]c(=O)c23)ccc1C(=O)N1CCOC(C)(C)C1` [Example 5-220, (2S,5S)-tert-butyl 5-(cyanomethyl)-5-(3-((4-(2,2-dimethylmorpholine-4-carbonyl)-3-methylphenyl)amino)-4-oxo-4,5-dihydro-1H-pyrazolo[4,3-c]pyridin-1-yl)tetrahydro-2H-pyran-2-carboxylate], for which the figures for the IC50 in assay [1] and in assay [2] were 0.14 nM and 0.19 nM, respectively.

For the compound `CN(C)C(=O)c1ccc2cc(Nc3nn([C@]4(CC#N)CC[C@@H](C(=O)OC(C)(C)C)OC4)c4cc[nH]c(=O)c34)ccc2n1` [Example 5-238, (2S,5S)-tert-butyl 5-(cyanomethyl)-5-(3-((2-(dimethylcarbamoyl)quinolin-6-yl)amino)-4-oxo-4,5-dihydro-1H-pyrazolo[4,3-c]pyridin-1-yl)tetrahydro-2H-pyran-2-carboxylate], the values for the IC50 in assay [1] and in assay [2] were 0.11 nM and 0.48 nM, respectively.

For `CN(C)S(=O)(=O)c1ccc(Nc2nn([C@]3(CC#N)COCC[C@@H]3F)c3cc[nH]c(=O)c23)cc1` (single isomer, unassigned) [Example 5-180, 4-({1-[(3R,4S or 3S,4R)-3-(cyanomethyl)-4-fluorotetrahydro-2H-pyran-3-yl]-4-oxo-4,5-dihydro-1H-pyrazolo[4,3-c]pyridin-3-yl}amino)-N,N-dimethylbenzene-sulfonamide], the IC50 in assay [1] worked out at 0.84 nM; in assay [2], 1.84 nM.

As to `CS(=O)(=O)NC(=O)[C@@H]1CC[C@@](CC#N)(n2nc(Nc3ccc(Cl)cc3)c3c(=O)[nH]ccc32)CO1` [Example 22, (2S,5S)-5-(3-((4-chlorophenyl)amino)-4-oxo-4,5-dihydro-1H-pyrazolo[4,3-c]pyridin-1-yl)-5-(cyanomethyl)-N-(methylsulfonyl)tetrahydro-2H-pyran-2-carboxamide], the results for the IC50 in assay [1] and in assay [2] were 3.78 nM and 23.3 nM, respectively.
